The text below walks through data of patent US11883387B2, “PqsR inverse agonists” (HELMHOLTZ-ZENTRUM FÜR INFEKTIONSFORSCHUNG GMBH, priority 2018, dated 2024).

The nature of data set [1]: Kinetic Turbidimetric Aqueous Solubility at room temperature for 5 min. Type of data set: physicochemical. The conditions noted are these: PBS buffer, kinetic from dmso stock, 2% DMSO. The protocol: Kinetic Turbidimetric Aqueous Solubility at room temperature for 5 min. Test compound was diluted in PBS buffer to give a range of concentrations (typically 0.4, 2, 4, 20, 40, 100, and 200 μM, final DMSO concentration 2%) and incubated at room temperature for 5 min. Absorbance was measured at a wavelength of 620 nm and the solubility was estimated from the concentration of test compound that produces an increase in absorbance above the vehicle control (i.e., […]). Data was analyzed by fitting a four parameter sigmoidal function to the measured and normalized absorbances and AUC calculation providing access to Log S (decadic logarithm of the solubility).

The next data set concerns the target PqsR (Pseudomonas aeruginosa, UniProt Q9I4X0). Description: E. coli based β-galactosidase reporter gene assay (PqsR inverse agonistic activity). The data set is classed as cell-based. Set-up: expressed in transfected cells; host or cells: Escherichia coli DH5α. The essentials: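 E. coli DH5α carrying pEAL08-2 (tac-driven pqsR with pqsA-lacZ) was grown to OD600 0.2 and incubated with 0.001–10 μM compound plus 50 nM PQS for 2.5 h at 37 °C. β-Galactosidase activity was measured by ONPG conversion in permeabilized cells and normalized between the no-PQS and solvent controls. IC50 came from concentration variation.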
Background: Reporter assays use an easily measured gene product as a stand-in for the process of interest.

Data set [2] concerns P. aeruginosa pyocyanin production. Nature of the data set: Pyocyanin assay. Type of data set: cell-based, P. aeruginosa PA14. Conditions: Pseudomonas aeruginosa, PA14, 16 h, read-out: IC50-value towards pyocyanin production, PA14 in PPGAS medium, 16 h. The protocol: Inhibition of P. aeruginosa pyocyanin production by compounds was determined photometrically as described before.[20] In short, an overnight culture of PA14 in PPGAS medium was washed, diluted in medium to a start OD600 of 0.02, and incubated for 16 h (37° C., 200 rpm, relative humidity 75%) in the presence of test compounds. Then, cultures were extracted with chloroform and re-extracted with 0.2 M HCl. Protonated red colored pyocyanin was determined by measuring OD520 and normalizing to OD600.

Chain of PqsR (Q9I4X0 whole entry): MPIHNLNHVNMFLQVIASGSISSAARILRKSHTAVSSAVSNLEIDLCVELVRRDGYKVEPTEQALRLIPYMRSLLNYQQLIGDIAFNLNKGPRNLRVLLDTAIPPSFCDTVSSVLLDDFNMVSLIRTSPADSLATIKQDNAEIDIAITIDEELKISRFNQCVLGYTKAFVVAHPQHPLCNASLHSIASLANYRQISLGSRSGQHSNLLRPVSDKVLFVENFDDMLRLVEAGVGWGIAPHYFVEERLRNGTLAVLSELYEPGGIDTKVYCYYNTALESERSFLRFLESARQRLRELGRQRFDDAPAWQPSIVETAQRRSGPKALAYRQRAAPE

As to `FC(F)(F)c1cc(NCc2cn(-c3ccc(Oc4cccnc4)c(Cl)c3)nn2)ccn1` [Compound 031, N-((1-(3-Chloro-4-(pyridin-3-yloxy)phenyl)-1H-1,2,3-triazol-4-yl)methyl)-2-(trifluoromethyl)pyridin-4-amine], the solubility – broadly, the dissolved amount per volume that the medium holds – at 5 min in data set [1] is more than 25 µM.

On to `FC(F)(F)c1cc(NCc2cn(-c3ccc(Oc4cccnc4)cc3)nn2)ccn1` [Compound 033, N-((1-(4-(Pyridin-3-yloxy)phenyl)-1H-1,2,3-triazol-4-yl)methyl)-2-(trifluoromethyl)pyridin-4-amine], for which, on PqsR, the IC50 – broadly, the concentration that gives 50% inhibition – is not above 0.05 µM. For the same molecule, the solubility at 5 min in data set [1] is more than 25 µM.

As for `CC(C)Oc1ccc(-n2cc(CNc3ccnc(C(F)(F)F)c3)nn2)cc1` [Compound 035, N-((1-(4-Isopropoxyphenyl)-1H-1,2,3-triazol-4-yl)methyl)-2-(trifluoromethyl)pyridin-4-amine], the concentration for half-maximal inhibition (IC50) on PqsR was not above 0.05 µM. Moreover, the solubility at 5 min in data set [1] was not below 100 µM.

As to `CC(C)Oc1ccc(-n2cc(CNc3ccnc(C(F)(F)F)c3)nn2)cc1Cl` [Compound 036, N-((1-(3-Chloro-4-isopropoxyphenyl)-1H-1,2,3-triazol-4-yl)methyl)-2-(trifluoromethyl)pyridin-4-amine], the half-maximal inhibitory concentration (IC50) was not above 0.05 µM at PqsR and not above 0.25 µM in data set [2]. The molecule also showed a solubility at 5 min in data set [1] of more than 25 µM.

`CSc1ccc(-n2cc(CNc3ccnc(C(F)(F)F)c3)nn2)cc1Cl` [Compound 038, N-((1-(3-Chloro-4-(methylthio)phenyl)-1H-1,2,3-triazol-4-yl)methyl)-2-(trifluoromethyl)pyridin-4-amine] showed an IC50 at PqsR not above 0.05 µM. In addition, the solubility at 5 min in data set [1] is more than 25 µM.

On to `CC(C)Oc1ccc(-n2cc(CNc3cc(Cl)nc(C(F)(F)F)c3)nn2)cc1Cl` [Compound 042, 2-Chloro-N-((1-(3-chloro-4-isopropoxyphenyl)-1H-1,2,3-triazol-4-yl)methyl)-6-(trifluoromethyl)pyridin-4-amine], for which the results for the 50% inhibitory concentration (IC50) (on PqsR; in data set [2]) were not above 0.05 µM and not above 0.25 µM, respectively. For the same molecule, the solubility at 5 min in data set [1] is more than 10 µM.

At PqsR, `FC(F)(F)c1cc(NCc2cn(-c3ccc(-n4ccc5ccncc54)cc3)nn2)ccn1` [Compound 043, N-((1-(4-(1H-pyrrolo[2,3-c]pyridin-1-yl)phenyl)-1H-1,2,3-triazol-4-yl)methyl)-2-(trifluoromethyl)pyridin-4-amine] came in with an IC50 not above 0.05 µM. The molecule further gave a solubility at 5 min in data set [1] of more than 25 µM.

On to `FC(F)(F)c1cc(NCc2cn(-c3ccc(-n4ccc5cccnc54)cc3)nn2)ccn1` [Compound 044, N-((1-(4-(1H-pyrrolo[2,3-b]pyridin-1-yl)phenyl)-1H-1,2,3-triazol-4-yl)methyl)-2-(trifluoromethyl)pyridin-4-amine], for which the IC50 at PqsR was not above 0.05 µM. In data set [1], this molecule had a solubility at 5 min of more than 10 µM.

For the molecule `FC(F)(F)c1cc(NCc2cn(-c3ccc(OC4CCC4)c(Cl)c3)nn2)ccn1` [Compound 047, N-((1-(3-chloro-4-cyclobutoxyphenyl)-1H-1,2,3-triazol-4-yl)methyl)-2-(trifluoromethyl)pyridin-4-amine], the IC50 at PqsR was not above 0.05 µM; in data set [2], not above 0.25 µM. In addition, the solubility at 5 min in data set [1] was more than 25 µM.

As for `N#Cc1cc(NCc2cn(-c3ccc(Oc4ccccc4)cc3)nn2)cc(Cl)n1` [Compound 051, 6-Chloro-4-(((1-(4-phenoxyphenyl)-1H-1,2,3-triazol-4-yl)methyl)amino)picolinonitrile], the IC50 on PqsR was not above 0.05 µM; in data set [2] it was not above 0.25 µM. Also, the solubility at 5 min in data set [1] was more than 50 µM.

`FC(F)(F)c1cc(SCc2cn(-c3cccc(Cl)c3)nn2)ccn1` [Compound 056, 4-(((1-(3-Chlorophenyl)-1H-1,2,3-triazol-4-yl)methyl)thio)-2-(trifluoromethyl)pyridine] gave an IC50 on PqsR of 0.251 to 1 µM. In data set [1], this molecule gave a solubility at 5 min of more than 25 µM.

As to `COc1ccc(-c2ncc(CNc3cc(N)nc(C(F)(F)F)n3)s2)cc1Cl` [Compound 070, N^4-((2-(3-chloro-4-methoxyphenyl)thiazol-5-yl)methyl)-2-(trifluoromethyl)-pyrimidine-4,6-diamine], the solubility at 5 min in data set [1] is more than 25 µM.

For `FC(F)(F)c1cc(NCc2nc(-c3ccc(Oc4ccccc4)cc3)cs2)ccn1` [Compound 079, N-((4-(4-Phenoxyphenyl)thiazol-2-yl)methyl)-2-(trifluoromethyl)pyridin-4-amine], at PqsR, the IC50 was 0.251 to 1 µM. For the same molecule, in data set [1], the solubility at 5 min was more than 25 µM.

`COc1ncc(-c2nc(CNc3ccnc(C(F)(F)F)c3)cs2)cc1Cl` [Compound 084, N-((2-(5-Chloro-6-methoxypyridin-3-yl)thiazol-4-yl)methyl)-2-(trifluoromethyl)pyridin-4-amine]: the IC50 on PqsR is 0.051 to 0.25 µM. Besides, the solubility at 5 min in data set [1] was more than 25 µM.

At PqsR, `COc1ncc(-c2ccc(CNc3ccnc(C(F)(F)F)c3)nc2)cc1Cl` [Compound 101, N-((5′-Chloro-6′-methoxy-[3,3′-bipyridin]-6-yl)methyl)-2-(trifluoromethyl)pyridin-4-amine] registered an IC50 of 0.051 to 0.25 µM. The same molecule gave a solubility at 5 min in data set [1] of more than 25 µM.

For the molecule `FC(F)(F)c1cc(SCc2ccc(-c3ccc(Cl)cc3)cn2)ccn1` [Compound 111, 4-(((5-(4-Chlorophenyl)pyridin-2-yl)methyl)thio)-2-(trifluoromethyl)pyridine], the solubility at 5 min in data set [1] was more than 10 µM.

Turning to `Nc1cc(SCc2nc3cc(Cl)c(Cl)cc3[nH]2)nc(C(F)(F)F)n1` [Compound 117, 6-(((5,6-Dichloro-1H-benzo[d]imidazol-2-yl)methyl)thio)-2-(trifluoromethyl)pyrimidin-4-amine], the IC50 at PqsR fell in the range of 0.051 to 0.25 µM. The same molecule came in with a solubility at 5 min in data set [1] of more than 50 µM.

On PqsR, `FC(F)(F)c1cc(OCc2nc3cc(Cl)c(Cl)cc3[nH]2)ccn1` [Compound 120, 5,6-Dichloro-2-(((2-(trifluoromethyl)pyridin-4-yl)oxy)methyl)-1H-benzo[d]imidazole] gave an IC50 of 0.251 to 1 µM. The solubility at 5 min in data set [1] is more than 50 µM.

On to `Fc1ccc(Oc2ccc3[nH]c(CSc4ccnc(C(F)(F)F)c4)nc3c2)cc1` [Compound 173, 5-(4-fluorophenoxy)-2-(((2-(trifluoromethyl)pyridin-4-yl)thio)methyl)-1H-benzo[d]imidazole], for which the IC50 in data set [2] is 0.251 to 1 µM. The solubility at 5 min in data set [1] is more than 25 µM.

In the case of `Nc1cc(SCc2nc3cc(Oc4cccnc4)ccc3[nH]2)nc(C(F)(F)F)n1` [Compound 174, 6-(((5-(pyridin-3-yloxy)-1H-benzo[d]imidazol-2-yl)methyl)thio)-2-(trifluoromethyl)pyrimidin-4-amine], the IC50 in data set [2] was 0.251 to 1 µM. In data set [1], this molecule registered a solubility at 5 min not below 100 µM.

`N#Cc1cc(SCc2nc3cc(Oc4ccccc4)ccc3[nH]2)ccn1` [Compound 175, 4-(((5-phenoxy-1H-benzo[d]imidazol-2-yl)methyl)thio)picolinonitrile]: the IC50 in data set [2] fell in the range of 0.251 to 1 µM. Also, the solubility at 5 min in data set [1] is more than 25 µM.

For `Clc1cc(SCc2nc3cc(Oc4ccccc4)ccc3[nH]2)ccn1` [Compound 178, 2-(((2-chloropyridin-4-yl)thio)methyl)-5-phenoxy-1H-benzo[d]imidazole], the IC50 on PqsR was 0.051 to 0.25 µM; in data set [2], 0.251 to 1 µM.

For `FC(F)(F)c1cc(SCc2nc3cc(Oc4ccccc4)ccc3[nH]2)cc(Cl)n1` [Compound 184, 2-(((2-chloro-6-(trifluoromethyl)pyridin-4-yl)thio)methyl)-5-phenoxy-1H-benzo[d]imidazole], the IC50 at PqsR was not above 0.05 µM; in data set [2], not above 0.25 µM.
